Consider six compounds from US5389643A, “Aminobenzoic acid derivatives useful for treating gastro-intestinal conditions” (Eisai Co., Ltd., priority 1992, dated 1995).

Structures can show the parent of a compound that is named as a salt. Where two headings read alike, the source gives them in different places.

Series [1] concerns cisplatin-induced vomiting. In words: Activity against cisplatin-induced vomiting of beagle. The class given is in vivo. As to conditions: intravenous, one hour after cisplatin 3 mg/kg, 5-hour observation. Here is the method:
Activity against cisplatin-induced vomiting of beagle
Beagles weighing 7 to 12 kg were used. 3 mg/kg of cisplatin (a product of Sigma) (1 ml/kg of physiological saline) was administered to each beagle through the vein of its forefoot. One hour after the administration of cisplatin, physiological saline (0.2 ml/kg) was administered to a control group of beagles and a solution of a test compound in physiological saline was administered to a test group of beagles, each through the vein of the other forefoot. The frequency of vomiting observed over a 5-hour period from the administration of cisplatin was recorded and the inhibitory ratio of the test compound was calculated according to the following formula.

For series [2], the system named is contraction of guinea pig ileum induced by electrical field stimulation (acetylcholine release). The series is described as follows: Effect of increasing contraction of guinea pig ileum induced by electrical field stimulation. It counts as cell-based. The following applies: electrical field stimulation once per 10 seconds, cumulative addition at intervals of 10 minutes, 37° C., read-out: Min. concn. causing increment of ileal contraction. The method, then:
Effect of increasing contraction of guinea pig ileum induced by electrical field stimulation
This experiment was made according to the method of Sanger et al. [see Br. J. Pharmacol., 91, 77-87 (1987)]. The longitudinal muscle of the nonterminal ileum of a guinea pig was separated and vertically suspended in the Krebs-Henseleit solution (37° C.) in a Magnus tube by applying a load of 0.5 g to the end of the muscle. A mixed gas comprising 95% of oxygen and 5% of carbon dioxide was passed through the solution. The contraction of the muscle was isometrically determined. Electrical field stimulation was applied to the muscle by the use of a platinum electrode once per 10 seconds to induce the contraction of the muscle. The contraction was caused through the release of acetylcholine. After the muscle had been stabilized, a solution of a test compound was cumulatively added into the Magnus tube at intervals of 10 minutes. The effect of the test compound is represented by percentage based on the initial contraction. The minimum concentration of each test compound at which an increment was found in the contraction due to the release of acetylcholine is shown in Table 4.

Series [3] deals with gastric emptying function. The series is described as follows: Activity for raising gastric emptying function. The class given is in vivo, Fischer male rats. As to conditions: oral (5 ml/kg), one hour before test food, versus control rat. The method, then: Activity for raising gastric emptying function
This experiment was made according to the method of Decktot et al. [see Eur. J. Pharmacol., 147, 313-316 (1988)]. Fischer male rats (weight: 160 to 180 g) were fasted for 18 hours before 3 ml of a test food comprising methylcellulose, beef broth, casein, sugar and corn starch was orally administered to each rat. One hour after the administration, the stomach was extirpated from each rat. The gastric emptying ratio was calculated from the weight of the test food remaining in the stomach. The ratio of rise of the gastric emptying function was determined by comparing the gastiric emptying ratio of a medicated rat with that of a control rat which had not administered any test compounds. Each test compound (5 ml/kg) was orally administered one hour before the administration of the test food. BRL 24682 was used as a control in this experiment.

For series [4], the target named is T1, 2-methylserotonin-induced contraction of the ileum (5-HT3 antagonism) (Cavia porcellus, UniProt O70212).
T1 construct: from tissue; host or cells: isolated nonterminal ileum of male Hartley guinea pig
T1 sequence (O70212 20-490): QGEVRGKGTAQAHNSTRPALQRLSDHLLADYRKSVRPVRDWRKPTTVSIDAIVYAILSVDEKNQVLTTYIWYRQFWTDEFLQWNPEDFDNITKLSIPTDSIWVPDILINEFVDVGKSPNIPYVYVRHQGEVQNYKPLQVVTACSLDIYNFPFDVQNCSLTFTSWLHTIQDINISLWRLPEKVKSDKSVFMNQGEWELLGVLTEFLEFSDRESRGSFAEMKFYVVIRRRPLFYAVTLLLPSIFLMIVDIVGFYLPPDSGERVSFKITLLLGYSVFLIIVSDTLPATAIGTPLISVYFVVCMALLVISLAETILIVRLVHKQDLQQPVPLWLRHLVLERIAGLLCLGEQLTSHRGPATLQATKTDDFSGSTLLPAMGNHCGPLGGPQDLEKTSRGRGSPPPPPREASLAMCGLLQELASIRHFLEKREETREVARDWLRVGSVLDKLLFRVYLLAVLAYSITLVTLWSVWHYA
The series is described as follows: Antagonism against 2-methylserotonin-induced contraction or systole of ileum. It counts as cell-based, guinea pig (Hartley male). As to conditions: test compound added 30 minutes before 2-methylserotonin; nonterminal ileum, 37° C.; read-out: pA2 (converted). The method, then: Antagonism against 2-methylserotonin-induced contraction or systole of ileum
This experiment was made according to the method of Sanger et al. [see Eur. J. Pharmacol., 159, 113-124 (1989)]. The nonterminal ileum of a Hartley male guinea pig was suspended in the Krebs-Henseleit solution (37° C.) by applying a load of 0.5 g to the end of the ileum and a gaseous mixture comprising 95% of oxygen and 5% of carbon dioxide was passed through the solution. The contraction of the ileum was isometrically determined. After allowing the ileum to stand for one or more hours for stabilization, a solution of a test compound was added to the solution, and after 30 minutes, 2-methylserotonin was noncumulatively added. The pA2 value was calculated from the rightward shift of the dose-response curve of the 2-methylserotonin-induced contraction caused by the test compound according to the method of Rossum et al. [see Arch. Int. Pharmacodyn., 143, 299(1963)]. BRL 24682 was used as a control in this experiment.

In the next series the test system is rat. In words: Oral toxicity in rat, one week. It counts as in vivo. As to conditions: dose of up to 30 mg/kg.
Setting [5] is: listed as 42 (+)-isomer, hydrochloride.
Setting [6] is: listed as 43 (-)-isomer, hydrochloride.

As to `C#CCC(C)Oc1cc(N)c(Cl)cc1C(=O)N[C@H]1C[C@H]2CC[C@@H](C1)N2C` (single isomer, unassigned; (+)) [Example 42, (+)-endo-4-Amino-5-chloro-N-(8-methyl-8-azabicyclo[3.2.1]oct-3-yl)-2-{(4-pentyn-2-yl)oxy}benzamide hydrochloride], the “Inhibitory ratio against cisplatin-induced vomiting” value (shortened to “Inhibitory ratio”) in series [1] (0.03 mg/kg) is recorded as 59%; in series [1] (0.1 mg/kg) it was 92%. Besides, the minimal effective concentration in series [2] (setting [5]) worked out at 0.086 µM. The “Ratio of rise of gastric emptying function” value in series [3] (setting [5]) stood at 22.2%. The Kb in series [4] is 1.2 nM.
For `CC#CC(C)Oc1cc(N)c(Cl)cc1C(=O)N[C@H]1C[C@H]2CC[C@@H](C1)N2C` (single isomer, unassigned; (-)) [Example 4, (-)-endo-4-Amino-5-chloro-N-(8-methyl-8-azabicyclo[3.2.1]oct-3-yl)-2-{(3-pentyn-2-yl)oxy)benzamide hydrochloride], the “Inhibitory ratio” value in series [1] (0.03 mg/kg) turned out to be 37%; in series [1] (0.1 mg/kg), 78%. Besides, the “toxicity on oral administration for one week” value in the series on rat was “no toxicity was exhibited in a dose of up to 30 mg/kg”. In series [2] (listed as 4 (+)-isomer, hydrochloride), the minimal effective concentration worked out at 0.056 µM. In addition, in series [3], the “Ratio of rise of gastric emptying function” value is reported as 31.1%. In addition, in series [4], the Kb was 2.69 nM.
With `C#CCC(C)Oc1cc(N)c(Cl)cc1C(=O)N[C@H]1C[C@H]2CC[C@@H](C1)N2C` (single isomer, unassigned; (-)) [Example 43, (-)-endo-4-Amino-5-chloro-N-(8-methyl-8-azabicyclo[3.2.1]oct-3-yl)-2-{(4-pentyn-2-yl)oxy}benzamide hydrochloride], the “toxicity on oral administration for one week” value in the series on rat was “no toxicity was exhibited in a dose of up to 30 mg/kg”. Also, the minimal effective concentration in series [2] (setting [6]) was found to be 0.47 µM. For the same compound, in series [3] (setting [6]), the “Ratio of rise of gastric emptying function” value came out at 12.9%.
Take `C#CCOc1cc(N)c(Cl)cc1C(=O)N[C@H]1C[C@H]2CC[C@@H](C1)N2C` [Example 21, endo-4-Amino-5-chloro-(8-methyl-8-azabicyclo[3.2.1]oct-3-yl)-2-propargyloxybenzamide hydrochloride]: the “Inhibitory ratio” value in series [1] (0.3 mg/kg) is 100%. Further, the minimal effective concentration in series [2] (Cavia porcellus, 10 min) worked out at 0.052 µM. Also, in series [3], the “Ratio of rise of gastric emptying function” value is reported as 18.9%. Moreover, the Kb in series [4] is 3.47 nM.
Consider `C#CC(CCC)Oc1cc(N)c(Cl)cc1C(=O)N[C@H]1C[C@H]2CC[C@@H](C1)N2C` (stereo partly drawn) [Example 29, endo-4-Amino-5-chloro-2-{(1-hexyn-3-yl)oxy}-N-(8-methyl-8-azabicyclo[3.2.1]oct-3-yl)benzamide hydrochloride], for which the minimal effective concentration in series [2] (Cavia porcellus, 10 min) came out at 0.26 µM. Moreover, the “Ratio of rise of gastric emptying function” value in series [3] was determined as 20.6%. Also, the Kb in series [4] was 0.457 nM.
Take `CC(Oc1cc(N)c(Cl)cc1C(=O)N[C@H]1C[C@H]2CC[C@@H](C1)N2C)C1CCCC1` (stereo partly drawn) [Example 32, endo-4-Amino-5-chloro-2-(1-cyclopentylethoxy)-N-(8-methyl-8-azabicyclo[3.2.1]oct-3-yl)benzamide hydrochloride]: the minimal effective concentration in series [2] (Cavia porcellus, 10 min) is above 100 µM. Further, in series [3], the “Ratio of rise of gastric emptying function” value came out at 18.3%. In addition, in series [4], the Kb is 0.933 nM.
